The text below walks through data of ChEMBL document CHEMBL1201862, “PubChem BioAssay data set” (2004).

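These data come from cells grown in 96-well plates and exposed to compound for 48 hours at five concentrations. GI50 = concentration required for 50% inhibition of growth.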 Calls of active or inactive are those of the source. Rule as the data show it: active = GI50 up to about 1.1 µM and inactive = higher.

Test systems include A549; ACHN; CCRF-CEM; EKVX; HCT-15; HOP-62; KM12; MOLT-4; Malme-3M; OVCAR-5; OVCAR-8; RPMI-8226; RXF 393; SF-295; SK-MEL-28; SK-OV-3; SNB-19; U-251; UACC-62; NCI/ADR-RES.
What all share (test): NCI anticancer screen, dose series, 48 h

In the case of `N#CCCN(CCC#N)c1ccc(/C=C2\N=C(c3cc([N+](=O)[O-])ccc3Cl)N(S(=O)(=O)c3ccccc3)C2=O)cc1`, the GI50 in the experiment with A549 was > 100 µM (inactive); in the experiment with ACHN, > 100 µM (inactive); in the experiment with CCRF-CEM, > 100 µM (inactive); in the experiment on EKVX it was > 100 µM (inactive); with HCT-15 it was more than 100 µM; with HOP-62, > 100 µM (inactive). Moreover, the GI50 with KM12, with MOLT-4, in the experiment on Malme-3M, in the experiment with OVCAR-5, in the experiment on OVCAR-8 and in the experiment on RPMI-8226 was > 100 µM (inactive) in each case. The GI50 in the experiment with RXF 393, with SF-295, with SK-MEL-28, with SK-OV-3, in the experiment with SNB-19 and in the experiment on U-251 was > 100 µM (inactive) throughout. In addition, the GI50 with UACC-62 was > 100 µM (inactive).

In the case of `CSc1ncc2c(n1)-c1ccccc1OC2NC1CC1` (centres undefined), the GI50 in the experiment on A549 is > 100 µM (inactive); in the experiment with ACHN it was 49.5 µM (inactive); with CCRF-CEM, 31.4 µM (inactive); with EKVX, 51.2 µM (inactive); in the experiment on HCT-15, 40.4 µM; in the experiment with KM12, 73.5 µM (inactive). Further, the GI50 in the experiment on MOLT-4 is 37.2 µM (inactive); with NCI/ADR-RES it was 48.1 µM (inactive); in the experiment on OVCAR-5, > 100 µM (inactive); with OVCAR-8 it was 71.4 µM (inactive); in the experiment on RPMI-8226, 31.3 µM (inactive); in the experiment with RXF 393 it was > 100 µM (inactive). The GI50 is > 100 µM (inactive) in the experiment with SF-295; > 100 µM (inactive) in the experiment with SK-OV-3; > 100 µM (inactive) with SNB-19; 76.2 µM (inactive) with U-251; 25.8 µM (inactive) in the experiment with UACC-62.

For `COc1ccc(CNc2nc3cc(C(F)(F)F)ccc3nc2C(=O)O)cc1OC`, the GI50 in the experiment on A549 is 35.6 µM (inactive); with ACHN it was 26.1 µM (inactive); with CCRF-CEM it was 18.4 µM (inactive); with EKVX it was 31.8 µM (inactive); in the experiment with HCT-15 it was 29.4 µM; with HOP-62, 22 µM (inactive). The GI50 was 32.1 µM (inactive) in the experiment on KM12; 22.8 µM (inactive) in the experiment on MOLT-4; 34 µM (inactive) in the experiment with NCI/ADR-RES; 46 µM (inactive) with OVCAR-5; 42.6 µM (inactive) with OVCAR-8; 28.1 µM (inactive) in the experiment on RPMI-8226. Moreover, the GI50 with SF-295 is 34 µM (inactive); in the experiment with SK-MEL-28 it was 67 µM (inactive); in the experiment with SK-OV-3, 29.7 µM (inactive); in the experiment with SNB-19, 29.6 µM (inactive); in the experiment on U-251 it was 24.3 µM (inactive); in the experiment on UACC-62, 20.5 µM (inactive).

For `C1=CC=C2NCCCCCCC/N=C3/C=CC=CC=C3NCCCCCCC/N=C\2C=C1`, the GI50 in the experiment with A549 was > 100 µM (inactive); in the experiment with ACHN, 85.7 µM (inactive); in the experiment on CCRF-CEM it was 36.8 µM (inactive); in the experiment on EKVX, > 100 µM (inactive); in the experiment on HCT-15, more than 100 µM; with HOP-62, 10 µM (inactive). The GI50 with KM12 is > 100 µM (inactive); in the experiment with MOLT-4, 31 µM (inactive); with Malme-3M, > 100 µM (inactive); with OVCAR-5 it was > 100 µM (inactive); in the experiment on OVCAR-8, 40.1 µM (inactive); with RPMI-8226, 35.9 µM (inactive). The GI50 in the experiment with RXF 393 is 16.9 µM (inactive); in the experiment on SF-295 it was 47.5 µM (inactive); with SK-OV-3, 10 µM (inactive); in the experiment with SNB-19 it was > 100 µM (inactive); in the experiment with U-251, 10 µM (inactive); in the experiment on UACC-62 it was 10 µM (inactive).

With `COC(C/C(=C/CO[Si](C(C)C)(C(C)C)C(C)C)C(=O)N(C(=O)OC(C)(C)C)c1ccccc1I)OC`, the GI50 in the experiment on A549 is 28.8 µM (inactive); in the experiment on ACHN it was 45.9 µM (inactive); with CCRF-CEM, > 10 µM (inactive); in the experiment on HCT-15, 33.4 µM; in the experiment on HOP-62, 57.7 µM (inactive); in the experiment on KM12, 41.9 µM (inactive). Also, the GI50 in the experiment with MOLT-4 is 22.9 µM (inactive); with NCI/ADR-RES it was > 100 µM (inactive); with OVCAR-5, 36.1 µM (inactive); in the experiment on OVCAR-8, > 100 µM (inactive); in the experiment with RPMI-8226, 15.2 µM (inactive); in the experiment with SF-295, 10.7 µM (inactive). Moreover, the GI50 was 67.3 µM (inactive) in the experiment on SK-MEL-28; > 100 µM (inactive) in the experiment on SK-OV-3; 56.4 µM (inactive) in the experiment with SNB-19; 37.6 µM (inactive) with U-251; > 100 µM (inactive) with UACC-62.

Consider `CCC1CN2CCc3cc(OC)c(OC)cc3C2CC1CC1c2cc(OC)c(OC)cc2CCN1C(=O)C(N)Cc1ccccc1.[O-][Cl+3]([O-])([O-])O` (centres undefined), for which the GI50 in the experiment with A549 was 1.6 µM (inactive); in the experiment on ACHN it was 2.88 µM (inactive); in the experiment with CCRF-CEM, 0.41 µM (active); with EKVX, 1.26 µM (inactive); with HCT-15, 1.72 µM; with HOP-62 it was 2.73 µM (inactive). Besides, the GI50 is 1.77 µM (inactive) with KM12; 0.239 µM (active) with MOLT-4; 2.77 µM (inactive) in the experiment with Malme-3M; 3.08 µM (inactive) in the experiment with OVCAR-5; 1.97 µM (inactive) in the experiment on OVCAR-8; 1.94 µM (inactive) in the experiment with RPMI-8226. The GI50 in the experiment on RXF 393 is 1.65 µM (inactive); in the experiment on SF-295, 2.05 µM (inactive); with SK-MEL-28, 3.32 µM (inactive); in the experiment with SK-OV-3, 4.65 µM (inactive); in the experiment on SNB-19, 1.85 µM (inactive); in the experiment on U-251 it was 2.06 µM (inactive). Also, in the experiment on UACC-62, the GI50 is 3.11 µM (inactive).

On to `CNC(=S)N/N=C(/C)CCC/C(C)=N/NC(=S)NC`, for which the GI50 is 5.45 µM (inactive) in the experiment with A549; > 80.7 µM (inactive) in the experiment with ACHN; 0.145 µM (active) with CCRF-CEM; 0.778 µM (active) in the experiment with EKVX; 11 µM with HCT-15; > 100 µM (inactive) in the experiment on HOP-62. In addition, the GI50 in the experiment on KM12 was > 100 µM (inactive); with MOLT-4, 0.0414 µM (active); in the experiment with Malme-3M, > 90.4 µM (inactive); in the experiment on NCI/ADR-RES it was > 100 µM (inactive); in the experiment with OVCAR-5, 1 µM (active); in the experiment with OVCAR-8, 57.4 µM (inactive). For the same molecule, the GI50 in the experiment with RPMI-8226 is 5.61 µM (inactive); in the experiment with SF-295, > 100 µM (inactive); in the experiment with SK-MEL-28, > 34.6 µM (inactive); in the experiment on SK-OV-3, > 100 µM (inactive); in the experiment with SNB-19, > 100 µM (inactive); with U-251, > 42.1 µM (inactive). The GI50 in the experiment with UACC-62 was > 58.2 µM (inactive).

As for `CSC(=S)N(C)c1nc(N(C)C)s[s+]1`, the GI50 was 51.5 µM (inactive) in the experiment on A549; > 100 µM (inactive) in the experiment on ACHN; > 100 µM (inactive) with CCRF-CEM; > 100 µM (inactive) in the experiment with EKVX; more than 100 µM in the experiment on HCT-15; > 100 µM (inactive) in the experiment on HOP-62. Moreover, the GI50 was > 100 µM (inactive) with KM12; > 100 µM (inactive) in the experiment on MOLT-4; > 100 µM (inactive) with Malme-3M; > 100 µM (inactive) with OVCAR-5; > 100 µM (inactive) in the experiment with OVCAR-8; 19.9 µM (inactive) with RPMI-8226. In addition, the GI50 with RXF 393, in the experiment on SF-295, in the experiment with SK-MEL-28, in the experiment with SK-OV-3, in the experiment on SNB-19 and in the experiment on U-251 was > 100 µM (inactive) in each case. Moreover, the GI50 with UACC-62 was > 100 µM (inactive).

For the molecule `C=C1CC(OC)(C(OC)C(=O)N(C)[C@H]2OCO[C@H]3C2O[C@H](C[C@@H](COC)OC)C(C)(C)C3OC)O[C@H](C)[C@@H]1C` (some centres undefined), the GI50 with A549 is 16 µM (inactive); in the experiment on CCRF-CEM, 7.71 µM (inactive); in the experiment with EKVX, 17 µM (inactive); in the experiment on HCT-15 it was 18 µM; in the experiment with HOP-62, > 91.6 µM (inactive); with KM12 it was 5.33 µM (inactive). Moreover, the GI50 was 7.18 µM (inactive) in the experiment with MOLT-4; 7.91 µM (inactive) in the experiment with NCI/ADR-RES; 26.7 µM (inactive) with OVCAR-5; 8.43 µM (inactive) with OVCAR-8; 17.2 µM (inactive) in the experiment on RPMI-8226; 10.6 µM (inactive) in the experiment with RXF 393. Moreover, the GI50 in the experiment on SF-295 was 7 µM (inactive); in the experiment with SK-MEL-28, 8.18 µM (inactive); in the experiment with SNB-19, 8.97 µM (inactive); in the experiment with U-251, 10.6 µM (inactive); in the experiment with UACC-62, 14.5 µM (inactive).

As to `C[n+]1ccc(Nc2ccc(NC(=O)c3ccc(Nc4cc[n+](C)c5ccc([N+](=O)[O-])cc45)cc3[N+](=O)[O-])cc2)cc1`, the GI50 was 22.5 µM (inactive) with A549; 24.4 µM (inactive) in the experiment with CCRF-CEM; 45.7 µM (inactive) in the experiment with EKVX; 44.8 µM with HCT-15; 59.8 µM (inactive) in the experiment on HOP-62; 65.9 µM (inactive) in the experiment with KM12. The GI50 in the experiment with MOLT-4 was 32.3 µM (inactive); in the experiment with Malme-3M it was 19.7 µM (inactive); in the experiment on NCI/ADR-RES, > 85.7 µM (inactive); in the experiment on OVCAR-8 it was 31.7 µM (inactive); in the experiment on RPMI-8226 it was 24 µM (inactive); with SF-295, 30.4 µM (inactive). Further, the GI50 with SK-MEL-28 was 25.9 µM (inactive); with SK-OV-3 it was 60.3 µM (inactive); with SNB-19, > 73.3 µM (inactive); in the experiment on U-251, 22.6 µM (inactive); in the experiment with UACC-62 it was 26.1 µM (inactive).

Regarding `CN1CCC(c2c(O)cc(O)c3c(=O)cc(-c4ccccc4Cl)oc23)C(O)C1` (centres undefined), the GI50 was 0.0607 µM (active) with A549; 0.048 µM (active) in the experiment on ACHN; 0.0271 µM (active) with CCRF-CEM; < 0.0395 µM (active) in the experiment with EKVX; 0.057 µM in the experiment with HCT-15; 0.018 µM (active) in the experiment on HOP-62. The GI50 with KM12 was 0.0228 µM (active); in the experiment on MOLT-4, < 0.0108 µM (active); in the experiment with Malme-3M, 0.203 µM (active); in the experiment on OVCAR-5 it was 0.128 µM (active); in the experiment on OVCAR-8 it was 0.0352 µM (active); in the experiment with RPMI-8226, < 0.01 µM (active). For the same molecule, the GI50 was < 0.0149 µM (active) in the experiment on RXF 393; < 0.0253 µM (active) in the experiment on SF-295; 0.0735 µM (active) in the experiment with SK-MEL-28; 0.571 µM (active) in the experiment on SK-OV-3; 0.0526 µM (active) with SNB-19; 0.0615 µM (active) in the experiment on U-251. For the same molecule, the GI50 in the experiment with UACC-62 is 0.0289 µM (active).
